Results on one molecule are retold here after PMC5171706 (2016).

For experiment [1], the system named is Pu24T (DNA, G4) TGAGGGTGGTGAGGGTGGGGAAGG
Briefly: 1H NMR titration. The note with it: K+ (potassium phosphate); 298 K, 400 μM Piperine, H2O/D2O 9:1; Piperine resonances broaden.

Experiment [2] has the same test system. The experiment in a line: gel mobility shift. The note with it: K+ (10 mM potassium phosphate, 50 mM KCl); 20 μM DNA, room temperature.
Experiment [3] has the same test system. The experiment in a line: UV melting at 295 nm. The settings on record: K+ (10 mM potassium phosphate, 50 mM KCl); pH 7.0; derived from two Tm (75.0 and 79.0 °C); D/N = 2.0; 78.0 °C at D/N 1.0.
Experiment [4] has the same test system. The experiment in a line: fluorescence titration of Piperine. The note with it: K+ (10 mM potassium phosphate, 50 mM KCl); pH 7.0, 25 °C; two-site saturation fit, Kd1 and Kd2 only in Figure 2 and Table S1.
The test system of experiment [5] is tel22 (DNA, G4) AGGGTTAGGGTTAGGGTTAGGG
Briefly: fluorescence titration of Piperine. The note with it: K+ (10 mM potassium phosphate, 50 mM KCl); pH 7.0, 25 °C; two-site saturation fit, Kd1 and Kd2 only in Figure 2 and Table S1.

Experiment [6] shares this test system. Briefly: time-resolved fluorescence (lifetime). The note with it: K+ (10 mM potassium phosphate, 50 mM KCl); 40.0 μM Piperine, D/N 1.0 and 2.0; lifetime increases.

For `O=C(/C=C/C=C/c1ccc2c(c1)OCO2)N1CCCCC1`, the binding result in experiment [1], in experiment [2] and in experiment [6] was “yes” each time. Also, the ΔTm in experiment [3] was determined as 4.0 °C. Moreover, the Kd1 in experiment [4] stood at 2.5 nM; in experiment [5], 87.5 nM.
